Source: BindingDB's records for doi:10.1021/jm011128+ (2002)

Tests used:
[1] = molecular target: Thymidine kinase 2, mitochondrial (Homo sapiens) (UniProt O00142); assay: Inhibitory effect against phosphorylation of [methyl-3H]dThd by Thymidine Kinase 2 (TK-2)
[2] = molecular target: Thymidine kinase (Human herpesvirus 1); assay: Compound was evaluated for inhibitory effect against phosphorylation of [methyl-3H]dThd by HSV-1 Thymidine kinase
[3] = molecular target: Thymidine kinase (Human herpesvirus 1); assay: Inhibitory activity against HSV-1 Thymidine kinase in OST-TK-/HSV-1 TK+ cell line in combination with BVAraU
[4] = molecular target: Thymidine kinase (Human herpesvirus 1); assay: Inhibitory activity against HSV-1 Thymidine kinase in OST-TK-/HSV-1 TK+ cell line in combination with gancicclovir

Sequence of Thymidine kinase 2, mitochondrial (Homo sapiens) (O00142 whole entry, looked up): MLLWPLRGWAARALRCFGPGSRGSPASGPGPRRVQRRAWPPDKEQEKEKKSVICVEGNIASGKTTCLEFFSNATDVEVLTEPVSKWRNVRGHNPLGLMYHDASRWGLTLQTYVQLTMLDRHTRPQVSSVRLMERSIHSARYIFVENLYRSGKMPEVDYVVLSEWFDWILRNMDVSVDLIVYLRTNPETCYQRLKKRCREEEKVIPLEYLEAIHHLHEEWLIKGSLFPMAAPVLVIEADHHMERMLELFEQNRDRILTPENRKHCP

Compound: Cc1cn(C/C=C\COCc2ccccc2)c(=O)[nH]c1=O [1-(4-Benzyloxy-but-2-enyl)-5-methyl-1H-pyrimidine-2,4-dione]
- IC50 [1]: 22 µM

Compound: COc1ccc(C(OCC2OC(n3cc(C)c(=O)[nH]c3=O)CC2O)(c2ccccc2)c2ccc(OC)cc2)cc1 (stereo not drawn) [1-{5-[Bis-(4-methoxy-phenyl)-phenyl-methoxymethyl]-4-hydroxy-tetrahydro-furan-2-yl}-5-methyl-1H-pyrimidine-2,4-dione]
- IC50 [2]: 14 µM

Compound: Cc1cn(C/C=C\COC(=O)C(C)(C)C)c(=O)[nH]c1=O [2,2-Dimethyl-propionic acid 4-(5-methyl-2,4-dioxo-3,4-dihydro-2H-pyrimidin-1-yl)-but-2-enyl ester]
- IC50 [1]: 40 µM

Compound: Cc1cn(Cc2ccccc2COC(c2ccccc2)(c2ccccc2)c2ccccc2)c(=O)[nH]c1=O [5-Methyl-1-(2-trityloxymethyl-benzyl)-1H-pyrimidine-2,4-dione]
- IC50 [3]: 0.008 µM
- IC50 [4]: 0.002 µM

Compound: Cc1cn(CC#CCOC(c2ccccc2)(c2ccccc2)c2ccccc2)c(=O)[nH]c1=O [5-Methyl-1-(4-trityloxy-but-2-ynyl)-1H-pyrimidine-2,4-dione]
- IC50 [2]: 3.1 µM

Compound: Cc1cn(C/C=C\COC(=O)c2ccccc2)c(=O)[nH]c1=O [Benzoic acid 4-(5-methyl-2,4-dioxo-3,4-dihydro-2H-pyrimidin-1-yl)-but-2-enyl ester]
- IC50 [1]: 30 µM

Compound: Cc1cn(C/C=C\COC(=O)C(c2ccccc2)c2ccccc2)c(=O)[nH]c1=O [Diphenyl-acetic acid 4-(5-methyl-2,4-dioxo-3,4-dihydro-2H-pyrimidin-1-yl)-but-2-enyl ester]
- IC50 [1]: 4.6 µM
